Where “and” joins values, the source holds several entries; their conditions need not be identical. Equal values may be shown once. Read-outs that look alike come from different tables or passages of the source.
Assays:
mouse L1210 leukemia = conditions: literature; cited from earlier work
[1] = literature (Taylor et al.); cited from earlier work
[2] = literature; cited from earlier work
dihydrofolate reductase = target: T1, dihydrofolate reductase (Homo sapiens, UniProt P00374); conditions: literature (De Graw et al.); cited from earlier work
T1 sequence (P00374 1-187): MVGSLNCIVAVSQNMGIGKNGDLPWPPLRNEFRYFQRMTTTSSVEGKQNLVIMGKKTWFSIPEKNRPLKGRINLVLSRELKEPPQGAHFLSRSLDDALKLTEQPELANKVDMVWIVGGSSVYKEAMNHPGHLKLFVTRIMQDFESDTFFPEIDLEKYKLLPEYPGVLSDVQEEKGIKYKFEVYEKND

[3] = target: T2, Dihydrofolate Reductase (DHFR) (Homo sapiens, UniProt P00374); experiment: Inhibition of Dihydrofolate Reductase (DHFR); type: biochemical
T2 sequence (P00374 1-187): T1 sequence (P00374 1-187)

L-1210 leukemia = experiment: Increase in life span, % ILS (Table 5, title only as image); type: in vivo
[4] = target: T3, Folate Polyglutamate Synthetase (Mus musculus, UniProt P48760); experiment: Substrate for Folate Polyglutamate Synthetase (partially purified mouse liver FPGS); type: biochemical
T3 construct: Incubation with partially purified mouse liver FPGS; from tissue; host or cells: mouse liver
T3 sequence (P48760 43-587): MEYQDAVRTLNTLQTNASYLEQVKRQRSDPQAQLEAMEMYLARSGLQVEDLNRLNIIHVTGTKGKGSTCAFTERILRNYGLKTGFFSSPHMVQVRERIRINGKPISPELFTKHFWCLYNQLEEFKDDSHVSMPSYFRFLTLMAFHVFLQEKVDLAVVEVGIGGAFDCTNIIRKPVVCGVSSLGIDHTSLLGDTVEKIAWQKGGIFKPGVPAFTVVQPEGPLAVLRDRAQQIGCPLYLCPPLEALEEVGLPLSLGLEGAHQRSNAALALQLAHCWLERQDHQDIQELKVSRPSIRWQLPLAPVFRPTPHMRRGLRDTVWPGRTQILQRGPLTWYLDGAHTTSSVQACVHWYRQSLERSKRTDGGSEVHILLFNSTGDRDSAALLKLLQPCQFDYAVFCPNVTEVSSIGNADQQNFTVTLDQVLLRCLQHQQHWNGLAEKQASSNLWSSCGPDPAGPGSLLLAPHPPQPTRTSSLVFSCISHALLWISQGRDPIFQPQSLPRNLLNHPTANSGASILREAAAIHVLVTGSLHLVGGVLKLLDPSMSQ

[5] = system: L1210 murine leukemic cells; experiment: Inhibition of L1210 murine leukemic cells in tissue culture; type: cell-based; conditions: Mus musculus, read-out: IC₅₀
6C3HED Lymphosarcoma = experiment: Subcutaneous tumor growth inhibition in mice; conditions: mouse, in vivo
[6] = system: Methotrexate-Resistant L-1210 Leukemia; experiment: Effect on Methotrexate-Resistant L-1210 Leukemia; type: in vivo; conditions: for Mean Increased Life span in days: in vivo
[7] = system: C3H Mammary Adenocarcinoma; experiment: Subcutaneous tumor growth inhibition in mice; conditions: mouse, in vivo
Madison Lung = experiment: Subcutaneous tumor growth inhibition in mice; conditions: mouse, in vivo
Lewis Lung Carcinoma = experiment: Subcutaneous tumor growth inhibition in mice; conditions: mouse, in vivo
[8] = system: X5563 Plasma Cell Myeloma; conditions: mouse, in vivo
B-16 = experiment: Subcutaneous tumor growth inhibition in mice; conditions: mouse, in vivo
[9] = target: T3, Folate Polyglutamate Synthetase; conditions: relative to folic acid; published data (Moran et al.); cited from earlier work
[10] = relative to folic acid, one hour at 37°C

Nc1nc(N)c2cc(CCc3ccc(C(=O)N[C@@H](CCC(=O)O)C(=O)O)cc3)ccc2n1 [5,8,10-trideazaaminopterin]
activity against mouse L1210 leukemia (in words) (mouse L1210 leukemia): exhibits activity

Nc1nc2ccc(CCc3ccc(C(=O)N[C@@H](CCC(=O)O)C(=O)O)cc3)cc2c(=O)[nH]1 [5,8,10-trideazafolic acid]
activity against mouse L1210 leukemia (in words) (mouse L1210 leukemia): only marginal activity

Nc1nc2ncc(CNc3ccc(C(=O)N[C@@H](CCC(=O)O)C(=O)O)cc3)cc2c(=O)[nH]1 [5-Deazafolic acid]
cytotoxicity (in words) [1]: only weakly cytotoxic

Nc1nc(N)c2nc(CCc3ccc(C(=O)N[C@@H](CCC(=O)O)C(=O)O)cc3)ccc2n1 [8,10-Dideazaaminopterin]
antimetabolic activity (in words) [2]: active

Nc1nc2ccc(CCc3ccc(C(=O)N[C@@H](CCC(=O)O)C(=O)O)cc3)nc2c(=O)[nH]1 [8,10-Dideazafolic acid]
effectiveness as a dihydrofolate reductase inhibitor (in words) (dihydrofolate reductase): only marginally effective

Nc1nc(N)c2nc(CCc3ccc(C(=O)N[C@@H](CCC(=O)O)C(=O)O)cc3)cnc2n1 [10-Deaza-aminopterin]
antimetabolic activity (in words) [2]: highly active

Nc1nc2ncc(CCc3ccc(C(=O)N[C@@H](CCC(=O)O)C(=O)O)cc3)nc2c(=O)[nH]1 [10-deazafolic acid]
antimetabolic activity (in words) [2]: no significant activity

Nc1nc(N)c2cc(CCc3ccc(C(=O)N[C@@H](CCC(=O)O)C(=O)O)cc3)cnc2n1 [Compound 1, N-(4-[2(2,4-diaminopyrido[2,3-d]-pyrimidin-6-yl)ethyl]benzoyl)-L-glutamic acid]
IC50 [3]: 43 nM | % ILS (L-1210 leukemia; dose 4 mg/kg): 130% | Rel Vmax [4, 10]: 0.35 ± 0.02 | IC50 [5]: 17 nM

Nc1nc(O)c2cc(CCc3ccc(C(=O)N[C@@H](CCC(=O)O)C(=O)O)cc3)cnc2n1 [Compound 2, N-(4-[2-(2-amino-4-hydroxypyrido[2,3-d]pyrimidin-6-yl)ethyl]benzoyl)-L-glutamic acid]
IC50 [3]: 49000 nM | Rel Vmax [4, 10]: 0.90 ± 0.10 | IC50 [5]: > 100000 nM

Nc1nc(N)c2c(n1)NCC(CCc1ccc(C(=O)N[C@@H](CCC(=O)O)C(=O)O)cc1)C2 (stereo partly drawn) [Compound 3, N-(4-[2-(2,4-diamino-5,6,7,8-tetrahydropyrido[2,3-d]pyrimidin-6-yl)ethyl]benzoyl)-L-glutamic acid]
IC50 [3]: 71 nM | % ILS (L-1210 leukemia; dose 1 mg/kg): 111% | Rel Vmax [4, 10]: 1.61 ± 0.05 | IC50 [5]: 3.3 nM

Nc1nc2c(c(=O)[nH]1)CC(CCc1ccc(C(=O)N[C@@H](CCC(=O)O)C(=O)O)cc1)CN2 (stereo partly drawn) [Compound 4, N-(4-[2-(2-amino-4-hydroxy-5,6,7,8-tetrahydropyrido[2,3-d]pyrimidin-6-yl)ethyl]benzoyl)-L-glutamic acid]
% INHIBITION (6C3HED Lymphosarcoma): 91% and 100% | inhibition of dihydrofolate reductase (in words) [3]: weak inhibitor | Mean Increased Life span in days ([6]; 2 mg/kg): +8 days | Mean Increased Life span in days ([6]; 4 mg/kg): +11 days | Mean Increased Life span in days ([6]; 8 mg/kg): +17 days | Mean Increased Life span in days ([6]; 12 mg/kg): +25 days | % INHIBITION [7]: 86% and 100% | activity against L-1210 leukemia (in words) (L-1210 leukemia; in vivo): good activity | % ILS (L-1210 leukemia; in vivo, 2 mg/kg): 27% | % ILS (L-1210 leukemia; in vivo, 4 mg/kg): 35% | % ILS (L-1210 leukemia; in vivo, 8 mg/kg): 59% | % ILS (L-1210 leukemia; in vivo, 12 mg/kg): 63% | Rel Vmax [4]: 1.24 ± 0.10 | % INHIBITION (Madison Lung): 54% and 72% and 87% and 90% | % INHIBITION (Lewis Lung Carcinoma): 58% and 77% and 94% and 100% | % INHIBITION [8]: 100% | toxicity (footnote) [8]: † Toxic | % INHIBITION (B-16): 98% and 99% and 100%

Nc1nc2c(c(=O)[nH]1)NC(CNc1ccc(C(=O)N[C@@H](CCC(=O)O)C(=O)O)cc1)CN2 (some centres unmarked) [FH4]
Rel Vmax [9]: 1.31 ± 0.07

CN(Cc1cnc2nc(N)nc(N)c2n1)c1ccc(C(=O)N[C@@H](CCC(=O)O)C(=O)O)cc1 [Methotrexate, methotrexate, reference compound]
Mean Increased Life span ([6]; dose 2 mg/kg): 0 days
